The values that follow come from patent US8269000B2, “Substituted pyrimidine and triazine compounds” (Gruenenthal GmbH, priority 2008, dated 2012).

Each structure is given as a SMILES string.

Assay [1] deals with T1, human B1R (Homo sapiens, UniProt P46663).
T1 construct: expressed in transfected cells; host or cells: CHO K1 cells
T1 sequence (P46663 1-353): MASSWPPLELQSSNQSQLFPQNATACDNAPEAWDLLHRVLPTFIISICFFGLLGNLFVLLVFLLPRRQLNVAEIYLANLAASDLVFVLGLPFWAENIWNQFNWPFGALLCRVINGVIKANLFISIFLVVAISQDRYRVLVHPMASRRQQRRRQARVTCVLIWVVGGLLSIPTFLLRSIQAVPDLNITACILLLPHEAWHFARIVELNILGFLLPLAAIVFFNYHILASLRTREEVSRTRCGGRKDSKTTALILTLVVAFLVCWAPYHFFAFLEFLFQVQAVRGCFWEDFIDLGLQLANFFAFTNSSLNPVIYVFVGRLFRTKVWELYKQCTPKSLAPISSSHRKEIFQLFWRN
The experiment in a line: FLIPR Ca2+ functional study on bradykinin receptor 1 (hB1R CHO K1 cells). It counts as cell-based. Conditions: % inhibition human B1R at 10 μM; for inhibition at 10 µM: read-out: % inh. (hum. B1R) 10 μM. As for the experimental part: The agonistic or antagonistic activity of substances can be quantified on the bradykinin receptor 1 (B1R) of the species human and rat using ectopically expressing cell lines (CHO K1 cells) and with the aid of a Ca^2+-sensitive dye (Fluo-4) using a fluorescent imaging plate reader (FLIPR). The indication in % activation is based on the Ca^2+ signal after addition of Lys-Des-Arg^9-bradykinin (0.5 nM) or Des-Arg^9-bradykinin (100 nM). Antagonists lead to suppression of the Ca^2+ influx after the addition of the agonist. % Inhibition compared with the maximum achievable inhibition is indicated.
The agonistic or antagonistic activity of substances can be determined on the bradykinin receptor 1 (B1R) of the species human and rat using the following assay. According to this assay, the Ca^2+ influx through the channel is quantified with the aid of a Ca^2+-sensitive dye (Fluo-4 type, Molecular Probes Europe BV, Leiden, Netherlands) using a Fluorescent Imaging Plate Reader (FLIPR, Molecular Devices, Sunnyvale, USA).
Chinese hamster ovary cells (CHO K1 cells) which have been stably transfected with the human B1R gene (hB1R cells) or with the B1R gene of the rat (rB1R cells) are used. For functional studies, the cells are plated out on black 96-well plates having a clear base (BD Biosciences, Heidelberg, Germany or Greiner, Frickenhausen, Germany) in a density of 20,000-35,000 cells/well. The cells are left overnight at 37° C. and with 5% CO2 in culture medium (hB1R cells: Nutrient Mixture Ham's F12, Gibco Invitrogen GmbH, Karlsruhe, Germany or DMEM, Sigma-Aldrich, Taufkirchen, Germany; rB1R cells: D-MEM/F12, Gibco Invitrogen GmbH, Karlsruhe, Germany), with 10 vol.% FBS (fetal bovine serum, Gibco Invitrogen GmbH, Karlsruhe, Germany or PAN Biotech GmbH, Aidenbach, Germany). On the following day, the cells are loaded for 60 minutes at 37° C. with 2.13 μM Fluo-4 (Molecular Probes Europe BV, Leiden, Netherlands) in HBSS buffer (Hank's buffered saline solution, Gibco Invitrogen GmbH, Karlsruhe, Germany) […] (Sigma-Aldrich, Taufkirchen, Germany) and 10 mM HEPES (Sigma-Aldrich, Taufkirchen, Germany). The plates are then washed twice with HBSS buffer, and HBSS buffer additionally containing 0.1% BSA (bovine serum albumin; Sigma-Aldrich, Taufkirchen, Germany), 5.6 mM glucose and 0.05% gelatin (Merck KGaA, Darmstadt, Germany) is added to the plates. After incubation for a further 20 minutes at room temperature, the plates are inserted into the FLIPR for Ca^2+ measurement. Alternatively, washing is carried out with buffer A (15 mM HEPES, 80 mM NaCl, 5 mM KCl, 1.2 mM CaCl2, 0.7 mM MgSO4, 2 g/l glucose, 2.5 mM probenecid) followed by loading with buffer A with added 2.5 μM Fluo-4 and 0.025% Pluronic F127 (Sigma-Aldrich, Taufkirchen, Germany). The cells are then washed twice with buffer A and incubated for 30 minutes at room temperature with buffer A additionally containing 0.05% BSA and 0.05% gelatin and are then inserted into the FLIPR for Ca^2+ measurement. The Ca^2+-dependent fluorescence is measured before and after the addition of substances (λex=488 nm, λem=540 nm). Quantification is carried out by measuring the highest fluorescence intensity (FC, fluorescence counts) over time.
The FLIPR protocol consists of two substance additions. Test substances (10 μM) are first pipetted onto the cells and the Ca^2+ influx is compared with the control (hB1R: Lys-Des-Arg^9-bradykinin>=50 nM; rB1R: Des-Arg^9-bradykinin 10 μM). This gives the activation in %, based on the Ca^2+ signal after addition of Lys-Des-Arg^9-bradykinin (>=50 nM) or Des-Arg^9-bradykinin (10 μM). After 10-20 minutes' incubation, Lys-Des-Arg^9-bradykinin (hB1R) or Des-Arg^9-bradykinin (rB1R) is applied in the concentration of the EC80, and the influx of Ca^2+ is likewise determined. Antagonists lead to suppression of the Ca^2+ influx. The % inhibition compared with the maximum achievable inhibition is calculated. […]

Assay [2] concerns the target T2, rat B1R (Rattus norvegicus, UniProt P97583).
T2 construct: expressed in transfected cells; host or cells: CHO K1 cells
T2 sequence (P97583 1-337): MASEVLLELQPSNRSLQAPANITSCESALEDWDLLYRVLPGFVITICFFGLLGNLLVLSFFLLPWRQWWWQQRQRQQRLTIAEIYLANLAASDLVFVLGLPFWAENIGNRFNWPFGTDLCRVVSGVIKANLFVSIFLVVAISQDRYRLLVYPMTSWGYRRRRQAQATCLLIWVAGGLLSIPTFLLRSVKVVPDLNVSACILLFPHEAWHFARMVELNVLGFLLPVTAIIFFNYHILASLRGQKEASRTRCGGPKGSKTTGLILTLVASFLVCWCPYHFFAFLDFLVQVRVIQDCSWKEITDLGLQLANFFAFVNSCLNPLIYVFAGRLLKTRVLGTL
The experiment in a line: FLIPR Ca2+ functional study on bradykinin receptor 1 (rB1R CHO K1 cells). It counts as cell-based. Conditions: for inhibition at 10 µM: CHO-K1, % inhibition rat B1R at 10 μM, read-out: % inh. (rat B1R) 10 μM; for % inh. (rat B1R) 10 μM: % inhibition rat B1R at 10 μM. Put shortly:
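Antagonism was calculated as % of maximal inhibition of the Ca2+ rise triggered by agonist at EC80 (Lys-Des-Arg9-bradykinin for hB1R, Des-Arg9-bradykinin for rB1R), added 10-20 min after test compound (10 μM or serial dilutions for IC50) to Fluo-4-loaded transfected CHO K1 cells on FLIPR. Duplicates or triplicates, ≥2 independent runs.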

`COc1cc(C)c(S(=O)(=O)N(CCOc2nccc(N3CCC4(CC3)CCC(OCCN3CCCC3)(c3cccnc3)CC4)n2)C2CC2)c(C)c1` [Example G-023, N-cyclopropyl-4-methoxy-2,6-dimethyl-N-[2-[4-[9-pyridin-3-yl-9-(2-pyrrolidin-1-yl-ethoxy)-3-azaspiro[5.5]undecan-3-yl]-pyrimidin-2-yl]oxy-ethyl]-benzenesulfonic acid amide]: the figures for the inhibition at 10 µM in assay [1] and in assay [2] were 94% and 107%, respectively.

As to `COc1cc(C)c(S(=O)(=O)N2CCCCC2COc2nccc(N(C)CCN3CCC(c4ccccc4)(N(C)C)CC3)n2)c(C)c1` (stereo not shown) [G_CC-004, N-[2-(4-dimethylamino-4-phenyl-1-piperidinyl)ethyl]-2-[[1-(4-methoxy-2,6-dimethylphenyl)sulfonyl-2-piperidinyl]methoxy]-N-methyl-4-pyrimidineamine], the inhibition at 10 µM in assay [1] and in assay [2] was 100% throughout.

On to `COc1cc(C)c(S(=O)(=O)N2CCCCC2COc2ccnc(N3CCC4(CCN(c5ccncc5)CC4)CC3)n2)c(C)c1` (stereo not shown) [H_CC-032], for which, in assay [1], the “% inh. (hum. B1R) 10 μM” value is recorded as 77%. Besides, the “% inh. (rat B1R) 10 μM” value in assay [2] was found to be 101%.

Turning to `COc1cc(C)c(S(=O)(=O)N(C)CCOc2nccc(N3CCN(c4ccncc4)CC3)n2)c(C)c1` [Example G-002, 4-methoxy-N,2,6-trimethyl-N-[2-[[4-[4-(4-pyridyl)-1-piperazinyl]-2-pyrimidinyl]oxy]ethyl]benzenesulfonamide], the inhibition at 10 µM in assay [1] stood at 97%; in assay [2], 109%.

Take `COc1cc(C)c(S(=O)(=O)N2CCC[C@H]2COc2nccc(N3CCC4(CC3)CCN(c3ccc(F)cc3)C4=O)n2)c(C)c1` [G_CC-048, 3-(4-fluorophenyl)-8-[2-[[(2S)-1-(4-methoxy-2,6-dimethylphenyl)sulfonyl-2-pyrrolidinyl]methoxy]-4-pyrimidinyl]-3,8-diazaspiro[4.5]decan-4-one]: the inhibition at 10 µM was 28% in assay [1] and 96% in assay [2].

With `COc1cc(C)c(S(=O)(=O)N2CCC[C@H]2COc2nccc(N3CCN(c4ccncc4)CC3)n2)c(C)c1` [G_CC-019, 2-[[(2S)-1-(4-methoxy-2,6-dimethylphenyl)sulfonyl-2-pyrrolidinyl]methoxy]-4-[4-(4-pyridyl)-1-piperazinyl]pyrimidine], the inhibition at 10 µM in assay [1] stood at 100%; in assay [2], 104%.

For `COc1cc(C)c(S(=O)(=O)N(CCOc2nccc(N3CCC(Oc4ccncc4)CC3)n2)C2CC2)c(C)c1` [Example G-012, N-cyclopropyl-4-methoxy-2,6-dimethyl-N-[2-[[4-[4-(4-pyridyloxy)-1-piperidinyl]-2-pyrimidinyl]oxy]ethyl]benzenesulfonamide], the inhibition at 10 µM stood at 99% in assay [1] and 97% in assay [2].

For `COc1cc(C)c(S(=O)(=O)N2CCCCC2COc2nccc(N3CCC(CCN4CCCCC4)CC3)n2)c(C)c1` (stereo not shown) [G_CC-026], the “% inh. (hum. B1R) 10 μM” value in assay [1] is given as 97%. The “% inh. (rat B1R) 10 μM” value in assay [2] was determined as 100%.

`COc1cc(C)c(S(=O)(=O)N(CCOc2nccc(N3CCC4(CCC(Oc5ccncc5)CC4)CC3)n2)C2CC2)c(C)c1` [Example G-016, N-cyclopropyl-4-methoxy-2,6-dimethyl-N-[2-[[4-[9-(4-pyridyloxy)-3-azaspiro[5.5]undecan-3-yl]-2-pyrimidinyl]oxy]ethyl]benzenesulfonamide]: the values for the inhibition at 10 µM in assay [1] and in assay [2] were 96% and 99%, respectively.

`COc1cc(C)c(S(=O)(=O)N(C)CCOc2ccnc(N3CCC4(CCN(c5ccncc5)CC4)CC3)n2)c(C)c1` [H_CC-029, 4-methoxy-N,2,6-trimethyl-N-[2-[[2-[3-(4-pyridyl)-3,9-diazaspiro[5.5]undecan-9-yl]-4-pyrimidinyl]oxy]ethyl]benzenesulfonamide]: the inhibition at 10 µM in assay [1] was 92%; in assay [2] it was 101%.

For `COc1cc(C)c(S(=O)(=O)N(CCOc2cc(N3CCC4(CCN(c5ccncc5)CC4)CC3)ncn2)C2CC2)c(C)c1` [Example I-001, N-cyclopropyl-4-methoxy-2,6-dimethyl-N-[2-[[6-[9-(4-pyridyl)-3,9-diazaspiro[5.5]undecan-3-yl]-4-pyrimidinyl]oxy]ethyl]benzenesulfonamide], the inhibition at 10 µM in assay [1] amounted to 98%; in assay [2] it was 88%.

In the case of `COc1cc(C)c(S(=O)(=O)N2CCC[C@H]2COc2nccc(N3CCN(C4CCN(C)CC4)CC3)n2)c(C)c1` [G_CC-036, 2-[[(2S)-1-(4-methoxy-2,6-dimethylphenyl)sulfonyl-2-pyrrolidinyl]methoxy]-4-[4-(1-methyl-4-piperidinyl)-1-piperazinyl]pyrimidine], the inhibition at 10 µM in assay [1] turned out to be 75%; in assay [2], 102%.

Regarding `COc1cc(C)c(S(=O)(=O)N(CCOc2nccc(N3CCC(OCCN4CCCC4)(c4cccnc4)CC3)n2)C2CC2)c(C)c1` [Example G-007, N-cyclopropyl-4-methoxy-2,6-dimethyl-N-[2-[[4-[4-(3-pyridyl)-4-(2-1-pyrrolidinylethoxy)-1-piperidinyl]-2-pyrimidinyl]oxy]ethyl]benzenesulfonamide], the results for the inhibition at 10 µM in assay [1] and in assay [2] were 100% and 97%, respectively.

For the molecule `COc1cc(C)c(S(=O)(=O)N2CCC[C@H]2COc2nccc(N3CCC(Oc4ccncc4)CC3)n2)c(C)c1` [G_CC-052, 2-[[(2S)-1-(4-methoxy-2,6-dimethylphenyl)sulfonyl-2-pyrrlidinyl]methoxy]-4-[4-(4-pyridyloxy)-1-piperidinyl]pyrimidine], the “% inh. (hum. B1R) 10 μM” value in assay [1] amounted to 74%. The “% inh. (rat B1R) 10 μM” value in assay [2] turned out to be 99%.
